Test results taken from US20240109839A1, “NOVEL COMPOUND EXHIBITING ANTI-INFLAMMATORY ACTIVITY AS P38 MAP KINASE INHIBITOR” (PRAZERTHERAPEUTICS INC., priority 2021, published 2024).
pIC50: −log10 of the molar value.

What was measured:
p38 alpha = p38 alpha (Homo sapiens, UniProt Q16539); experiment: Evaluation of inhibitory ability of p38a mitogen-activated protein kinase (MAPK); assay type: biochemical; conditions: Serine/Threonine 15 peptide, 1 hour at room temperature, read at 445 nm and 520 nm
Chain of p38 alpha (Q16539 whole entry): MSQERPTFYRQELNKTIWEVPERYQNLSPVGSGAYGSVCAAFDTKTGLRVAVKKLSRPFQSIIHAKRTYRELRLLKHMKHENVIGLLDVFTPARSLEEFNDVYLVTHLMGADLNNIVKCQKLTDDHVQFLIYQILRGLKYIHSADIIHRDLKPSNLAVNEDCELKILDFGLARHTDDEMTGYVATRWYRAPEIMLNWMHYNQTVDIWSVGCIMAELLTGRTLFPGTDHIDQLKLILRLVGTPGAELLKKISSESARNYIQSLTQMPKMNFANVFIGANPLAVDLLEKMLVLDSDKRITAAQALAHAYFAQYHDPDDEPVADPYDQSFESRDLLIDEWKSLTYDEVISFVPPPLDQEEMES
Description: To identify the ability to inhibit p38 MAPK, compounds 1 to 15 were diluted to identify the inhibitory effect according to concentration. Briefly, the compounds were diluted at concentrations of […], respectively, and then a peptide/kinase mixture (final 7.07-28.3 ng p38 alpha, 2 μM Serine/Threonine 15, 50 mM HEPES pH 7.0, 0.01% NaN3) and ATP solution were added. After carrying out a reaction at room temperature for 1 hour, a development reagent was added, and a reaction was performed again at room temperature for 1 hour.

p-p38 MAPK = biological target: T1, p-p38 MAPK (Mus musculus, UniProt P47811); experiment: Evaluation of p38 MAPK protein inhibitory ability in cells (p-p38 immunoblot); assay type: cell-based; conditions: 10 μM compound, 24 hours; for inhibition at 10 µM: RAW264.7, Raw264.7 cells; for p-p38 inhibition %: Raw264.7 cells, 10 µM
T1 construct: endogenous in cells; host or cells: Raw264.7
T1 sequence (P47811 whole entry): as the sequence (Q16539 whole entry) above, with L48H, T263A counted along it
Description: To identify inhibition of p-p38 MAPK, inhibition of p38 MAPK was identified after each compound was treated to Raw264.7 cells obtained by transforming macrophages into cancerous cells that cause inflammation according to p-p38 MAPK activity. Briefly, Raw264.7 cells were cultured in Dulbecco's modified Eagle Medium supplemented with 10% fetal bovine serum and penicillin/streptomycin (100 U/ml). Raw 264.7 cells were treated with 10 μM of compounds 1 to 15 according to the present disclosure in a petri dish respectively, followed by culture in a CO2 incubator for 24 hours. The effect of each compound on inhibition of p-p38 MAPK in cells was identified through protein immunoblot.
After completion of cell culture under the experimental conditions, washing was performed with cold phosphate buffered saline (PBS). The cells were then collected and centrifuged at 1200 rpm for 3 minutes. The precipitate was dissolved in cells with 2× sample buffer (1M Tris-HCl pH 6.8, 50% glycerol, 10% SDS, 2-mercaptoethanol, 1% bromophenol blue) and boiled at 100° C. for 10 minutes. The prepared protein samples were subjected to sodium dodecyl sulfate poly acrylamide gel electrophoresis and then transferred to PVDF membrane (Millipore). Blocking was performed in a 5% bovine serum albumin (BSA, RMbio) solution for a specific coupling reaction between the protein on the PVDF membrane and antibody. The BSA solution was then discarded, and the membrane was washed with PBS-T (0.5% tween 20 in PBS). The coupling reaction between the protein on the membrane and antibody was carried out overnight at 4° C., followed by washing again with PBS-T. Finally, a secondary antibody (Cell signaling Technology) conjugated with horseradish peroxidase (HRP) was diluted in PBS-T, and a reaction was carried out at room temperature for 2 hours. Luminata Forte HRP substrate (Millipore) was used to determine the protein amount on the membrane.

Raw264.7 cells = experiment: Evaluation of nitric oxide inhibitory ability according to cellular inflammatory response (Griess reagent); assay type: cell-based; conditions: 10 μM compound, 550 nm; for inhibition at 10 µM: Mus musculus, RAW264.7, 24 h, read-out: NO inhibition (%); for NO inhibition (%): 24 hours, 10 µM
Description: In order to identify an inflammatory inhibitory effect upon inhibition of p-p38 MAPK, each compound was treated to Raw264.7 cells obtained by transforming macrophages into cancerous cells involved in the inflammatory response, so as to identify inhibition of inflammation due to inhibition of p38 MAPK. Briefly, Raw264.7 cells were cultured in Dulbecco's Modified Eagle Medium supplemented with 10% fetal bovine serum and penicillin/streptomycin (100 U/ml). Raw 264.7 cells were treated with 10 μM of compounds 1 to 15 according to the present disclosure in a petri dish respectively, followed by culture in a CO2 incubator for 24 hours.
After completion of cell culture under experimental conditions, the supernatant was obtained and centrifuged at 1200 rpm for 3 minutes. The centrifuged supernatant was mixed with Griess reagent (1% sulfanilamide, 0.1% N-(1-naphthyl)ethylenediamine dihydrochloride, 5% phosphoric acid) at 1:1 and then a reaction was performed for 10 minutes under shaded condition. The concentration of nitric oxide was determined at a wavelength of 550 nm.

| pIC50 (p38 alpha) | inhibition at 10 µM (p-p38 MAPK) [%] | p-p38 inhibition % (p-p38 MAPK) [%] | SMILES | inhibition at 10 µM (Raw264.7 cells) [%] | NO inhibition (%) (Raw264.7 cells) |
| --- | --- | --- | --- | --- | --- |
| 7.66 |  |  | COCCC(C)C(=O)c1ccc(-c2cc(C(=O)NC3CC3)ccc2C)cc1 (stereo not drawn) [Compound 2, N-cyclopropyl-4′-(4-methoxy-2-methylbutanoyl)-6-methyl-[1,1′-biphenyl]-3-carboxamide] |  |  |
| 7.41 | 20.9 |  | Cc1ccc(C(=O)NC2CC2)cc1-c1ccc(C(=O)C2CC2)cc1 [Compound 4, 4′-(cyclopropanecarbonyl)-N-cyclopropyl-6-methyl-[1,1′-biphenyl]-3-carboxamide] | 26 |  |
| 7.33 | 83 |  | Cc1ccc(C(=O)NC2CC2)cc1-c1ccc(C(=O)C2CCCCCC2)cc1 [Compound 8, 4′-(cycloheptanecarbonyl)-N-cyclopropyl-6-methyl-[1,1′-biphenyl]-3-carboxamide] | 43.6 |  |
| 7.14 |  |  | Cc1ccc(C(=O)NC2CC2)cc1-c1ccc(C(=O)C(C)(C)O)cc1 [Compound 1, N-cyclopropyl-4′-(2-hydroxy-2-methylpropanoyl)-6-methyl-[1,1′-biphenyl]-3-carboxamide] |  |  |
| 7.33 | 81.7 |  | Cc1ccc(C(=O)NC2CC2)cc1-c1ccc(C(=O)C2CC=CC2)cc1 [Compound 9, 4′-(cyclopent-3-enecarbonyl)-N-cyclopropyl-6-methyl-[1,1′-biphenyl]-3-carboxamide] | 21.1 |  |
| 7.06 | 80.4 |  | Cc1ccc(C(=O)NC2CC2)cc1-c1ccc(C(=O)C2CCC2)cc1 [Compound 5, 4′-(cyclobutanecarbonyl)-N-cyclopropyl-6-methyl-[1,1′-biphenyl]-3-carboxamide] | 11.9 |  |
| 7.65 | 44.7 |  | Cc1ccc(C(=O)NC2CC2)cc1-c1ccc(C(=O)C2CCC(O)C2)cc1 (stereo not drawn) [Compound 10, N-cyclopropyl-4′-(3-hydroxycyclopentanecarbonyl)-6-methyl-[1,1′-biphenyl]-3-carboxamide] | 11.1 |  |
| 7.23 |  | 64.1 | Cc1ccc(C(=O)NC2CC2)cc1-c1ccc(C(=O)C2CCC(OCCO)C2)cc1 (stereo not drawn) [11 (anti isomer), N-cyclopropyl-4′-(3-(2-hydroxyethoxy)cyclopentanecarbonyl)-6-methyl-[1,1′-biphenyl]-3-carboxamide] |  | 11.0 |
| 7.29 |  |  | Cc1ccc(C(=O)NC2CC2)cc1-c1ccc(C(=O)C(C)O)cc1 (stereo not drawn) [Compound 13, N-cyclopropyl-4′-(2-hydroxypropanoyl)-6-methyl-[1,1′-biphenyl]-3-carboxamide] |  |  |
| 6.80 | 79.2 |  | COCCN1CCC(C(=O)c2ccc(-c3cc(C(=O)NC4CC4)ccc3C)cc2)C1 (stereo not drawn) [Compound 15, N-cyclopropyl-4′-(1-(2-methoxyethyl)pyrrolidine-3-carbonyl)-6-methyl-[1,1′-biphenyl]-3-carboxamide] |  |  |
| 7.14 | 87.6 |  | Cc1ccc(C(=O)NC2CC2)cc1-c1ccc(C(=O)C2CCCCC2)cc1 [Compound 7, 4′-(cyclohexanecarbonyl)-N-cyclopropyl-6-methyl-[1,1′-biphenyl]-3-carboxamide] | 15.5 |  |
| 7.56 |  | 41.9 | Cc1ccc(C(=O)NC2CC2)cc1-c1ccc(C(=O)C2CCC(OCCO)C2)cc1 (stereo not drawn) [11 (syn isomer), N-cyclopropyl-4′-(3-(2-hydroxyethoxy)cyclopentanecarbonyl)-6-methyl-[1,1′-biphenyl]-3-carboxamide] |  | 30.6 |
| 7.29 |  |  | COCCCC(C)C(=O)c1ccc(-c2cc(C(=O)NC3CC3)ccc2C)cc1 (stereo not drawn) [Compound 3, N-cyclopropyl-4′-(5-methoxy-2-methylpentanoyl)-6-methyl-[1,1′-biphenyl]-3-carboxamide] |  |  |
| 7.66 |  |  | COCCOC1CCC(C(=O)c2ccc(-c3cc(C(=O)NC4CC4)ccc3C)cc2)C1 (stereo not drawn) [Compound 12, N-cyclopropyl-4′-(3-(2-methoxyethoxy)cyclopentane-1-carbonyl)-6-methyl-[1,1′-biphenyl]-3-carboxamide] |  |  |
| 6.89 | 76.2 |  | Cc1ccc(C(=O)NC2CC2)cc1-c1ccc(C(=O)C2CCCC2)cc1 [Compound 6, 4′-(cyclopentanecarbonyl)-N-cyclopropyl-6-methyl-[1,1′-biphenyl]-3-carboxamide] | 24 |  |

| SMILES | pIC50 (p38 alpha) | inhibition at 10 µM (p-p38 MAPK) [%] | p-p38 inhibition % (p-p38 MAPK) [%] | inhibition at 10 µM (Raw264.7 cells) [%] | NO inhibition (%) (Raw264.7 cells) |
| --- | --- | --- | --- | --- | --- |
| Cc1ccc(C(=O)NC2CC2)cc1-c1ccc(C(=O)C2CCNC2)cc1 (stereo not drawn) [Compound 14, N-cyclopropyl-6-methyl-4′-(pyrrolidine-3-carbonyl)-[1,1′-biphenyl]-3-carboxamide] | 6.90 | 88.6 |  |  |  |
